Where a name gives a salt, the structure may show the parent alone.
Legend:
[1] = molecular target: human Cat S (Homo sapiens (Human), UniProt P25774); assay: Cathepsin enzyme inhibition assay (human Cat S); format: biochemical; conditions: enzyme 1 nM, substrate Z-Val-Val-Arg-AMC 20 μM
Description: (§1) Cathepsin Enzyme Inhibition Assay
(§2) Enzyme activity is measured by observing the increase in fluorescence intensity caused by cleavage of a peptide substrate containing a fluorophore whose emission is quenched in the intact peptide.
(§3) Assay buffer: 100 mM potassium phosphate pH 6.5, EDTA-Na 5 mM, Triton X-100 0.001%, DTT 5 mM.
(§4) Enzymes (all at 1 nM): human and mouse Cathepsin S, Cat K, Cat B, Cat L.
(§5) Substrate (20 μM): Z-Val-Val-Arg-AMC, except for Cat K which uses Z-Leu-Arg-AMC (both from Bachem).
Enzyme is added to the substance dilutions in 96-well microtitre plates and the reaction is started with substrate. […] IC50 are calculated by standard methods.
Inhibition of human Cat S, mouse Cat S, human Cat K, human Cat B, human Cat L and mouse Cat L have been measured separately.

[2] = molecular target: human Cat L (Homo sapiens (Human), UniProt P07711); assay: Cathepsin enzyme inhibition assay (human Cat L); format: biochemical; conditions: enzyme 1 nM, substrate Z-Val-Val-Arg-AMC 20 μM
human Cat L, sequence (P07711 114-333): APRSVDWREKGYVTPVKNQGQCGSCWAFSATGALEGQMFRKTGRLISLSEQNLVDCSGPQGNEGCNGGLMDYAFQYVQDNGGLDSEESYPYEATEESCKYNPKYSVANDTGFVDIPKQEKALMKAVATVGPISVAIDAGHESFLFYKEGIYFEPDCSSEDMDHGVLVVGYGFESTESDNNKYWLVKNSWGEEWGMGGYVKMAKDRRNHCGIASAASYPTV
Description: as §1, §2, §3, §4, §5
Excitation 360 nm, Emission 465 nm.
Enzyme is added to the substance dilutions in 96-well microtitre plates and the reaction is started with substrate. Fluorescence emission is measured over 20 minutes, during which time a linear increase is observed in the absence of inhibitor. IC50 are calculated by standard methods.
Inhibition of human Cat S, mouse Cat S, human Cat K, human Cat B, human Cat L and mouse Cat L have been measured separately. The results obtained for human Cat S and L for representative compounds of the invention are expressed in the following table in μM.

human Cat S, sequence (P25774 115-331): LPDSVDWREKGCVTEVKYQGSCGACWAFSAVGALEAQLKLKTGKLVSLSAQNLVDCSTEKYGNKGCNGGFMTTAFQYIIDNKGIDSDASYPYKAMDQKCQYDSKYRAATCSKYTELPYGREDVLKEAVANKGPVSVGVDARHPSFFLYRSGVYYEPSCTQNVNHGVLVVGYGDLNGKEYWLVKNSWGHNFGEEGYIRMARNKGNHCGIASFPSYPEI

Compound | IC50 ([1]; pH 6.5) | IC50 ([2]; pH 6.5) | IC50 ([1]; pH 6.5, hydrochloride) | IC50 ([2]; pH 6.5, hydrochloride)
N#CC1(NC(=O)[C@@H]2C[C@@H](S(=O)(=O)c3ccc(OCC(F)(F)F)cc3Cl)CN2C(=O)C2(c3ncc(Cl)cc3F)CNC2)CC1 [Example 20, (2S,4R)-1-(3-(5-Chloro-3-fluoropyridin-2-yl)azetidine-3-carbonyl)-4-(2-chloro-4-(2,2,2-trifluoroethoxy)phenylsulfonyl)-N-(1-cyanocyclopropyl)pyrrolidine-2-carboxamide] | 2.92 nM | 78.2 nM | – | –
CC(C)(C)OC(=O)N1CCC1(C(=O)N1C[C@H](S(=O)(=O)c2ccc(F)cc2Cl)C[C@H]1C(=O)NC1(C#N)CC1)c1ncc(Cl)cc1F (stereo partly drawn) [Example 21, 2-[(2S,4R)-4-(2-Chloro-4-fluoro-benzenesulfonyl)-2-(1-cyano-cyclopropylcarbamoyl)-pyrrolidine-1-carbonyl]-2-(5-chloro-3-fluoro-pyridin-2-yl)-azetidine-1-carboxylic acid tert-butyl ester] | 1.04 nM | 1340 nM | – | –
CC(C)(C)OC(=O)N1CCC1(C(=O)N1C[C@H](S(=O)(=O)c2ccc(F)cc2Cl)C[C@H]1C(=O)NC1(C#N)CC1)c1ncc(Br)cc1F (stereo partly drawn) [Example 22, 2-(5-Bromo-3-fluoro-pyridin-2-yl)-2-[(2S,4R)-4-(2-chloro-4-fluoro-benzenesulfonyl)-2-(1-cyano-cyclopropylcarbamoyl)-pyrrolidine-1-carbonyl]-azetidine-1-carboxylic acid tert-butyl ester] | 1.26 nM | 1020 nM | – | –
CC(C)(C)OC(=O)N1CCC1(C(=O)N1C[C@H](S(=O)(=O)c2ccc(F)cc2Cl)C[C@H]1C(=O)NC1(C#N)CC1)c1ncc(Cl)cc1F (stereo partly drawn) [Example 23, 2-[(2S,4R)-4-(2-Chloro-4-fluoro-benzenesulfonyl)-2-(1-cyano-cyclopropylcarbamoyl)-pyrrolidine-1-carbonyl]-2-(5-chloro-3-fluoro-pyridin-2-yl)-azetidine-1-carboxylic acid tert-butyl ester] | 0.377 nM | 2010 nM | – | –
CC(C)(C)OC(=O)N1CCC1(C(=O)N1C[C@H](S(=O)(=O)c2ccc(F)cc2Cl)C[C@H]1C(=O)NC1(C#N)CC1)c1ncc(Cl)cc1F (stereo partly drawn) [Example 24, 2-[(2S,4R)-4-(2-Chloro-4-fluoro-benzenesulfonyl)-2-(1-cyano-cyclopropylcarbamoyl)-pyrrolidine-1-carbonyl]-2-(5-chloro-3-fluoro-pyridin-2-yl)-azetidine-1-carboxylic acid tert-butyl ester] | 4.56 nM | 922 nM | – | –
CC(C)(C)OC(=O)N1CCC1(C(=O)N1C[C@H](S(=O)(=O)c2ccc(F)cc2Cl)C[C@H]1C(=O)NC1(C#N)CC1)c1ncc(Br)cc1F (stereo partly drawn) [Example 25, 2-(5-Bromo-3-fluoro-pyridin-2-yl)-2-[(2S,4R)-4-(2-chloro-4-fluoro-benzenesulfonyl)-2-(1-cyano-cyclopropylcarbamoyl)-pyrrolidine-1-carbonyl]-azetidine-1-carboxylic acid tert-butyl ester] | 0.492 nM | 2910 nM | – | –
CC(C)(C)OC(=O)N1CCC1(C(=O)N1C[C@H](S(=O)(=O)c2ccc(F)cc2Cl)C[C@H]1C(=O)NC1(C#N)CC1)c1ncc(Br)cc1F (stereo partly drawn) [Example 26, 2-(5-Bromo-3-fluoro-pyridin-2-yl)-2-[(2S,4R)-4-(2-chloro-4-fluoro-benzenesulfonyl)-2-(1-cyano-cyclopropylcarbamoyl)-pyrrolidine-1-carbonyl]-azetidine-1-carboxylic acid tert-butyl ester] | 4.45 nM | 471 nM | – | –
C[C@H](Oc1ccc(S(=O)(=O)[C@@H]2C[C@@H](C(=O)NC3(C#N)CC3)N(C(=O)C3(c4ncc(Br)cc4F)CCN3C(=O)OC(C)(C)C)C2)c(Cl)c1)C(F)(F)F (stereo partly drawn) [Example 30, 2-(5-Bromo-3-fluoro-pyridin-2-yl)-2-[(2S,4R)-4-[2-chloro-4-((S)-2,2,2-trifluoro-1-methyl-ethoxy)-benzenesulfonyl]-2-(1-cyano-cyclopropylcarbamoyl)-pyrrolidine-1-carbonyl]-azetidine-1-carboxylic acid tert-butyl ester] | 2.22 nM | 1060 nM | – | –
N#CC1(NC(=O)[C@@H]2C[C@@H](S(=O)(=O)c3ccc(F)cc3Cl)CN2C(=O)C2(c3ncc(Cl)cc3F)CCN2)CC1 (stereo partly drawn) [Example 31, (2S,4R)-4-(2-Chloro-4-fluoro-benzenesulfonyl)-1-[2-(5-chloro-3-fluoro-pyridin-2-yl)-azetidine-2-carbonyl]-pyrrolidine-2-carboxylic acid (1-cyano-cyclopropyl)-amide; hydrochloride] | – | – | 1.57 nM | 81.6 nM
C[C@H](Oc1ccc(S(=O)(=O)[C@@H]2C[C@@H](C(=O)NC3(C#N)CC3)N(C(=O)C3(c4ncc(Br)cc4F)CN(C(=O)OC(C)(C)C)C3)C2)c(Cl)c1)C(F)(F)F [Example 33, 3-(5-Bromo-3-fluoro-pyridin-2-yl)-3-[(2S,4R)-4-[2-chloro-4-((S)-2,2,2-trifluoro-1-methyl-ethoxy)-benzenesulfonyl]-2-(1-cyano-cyclopropylcarbamoyl)-pyrrolidine-1-carbonyl]-azetidine-1-carboxylic acid tert-butyl ester] | 3.54 nM | 89.5 nM | – | –
C[C@H](Oc1ccc(S(=O)(=O)[C@@H]2C[C@@H](C(=O)NC3(C#N)CC3)N(C(=O)C3(c4ncc(Br)cc4F)CNC3)C2)c(Cl)c1)C(F)(F)F [Example 34, (2S,4R)-1-[3-(5-Bromo-3-fluoro-pyridin-2-yl)-azetidine-3-carbonyl]-4-[2-chloro-4-((S)-2,2,2-trifluoro-1-methyl-ethoxy)-benzenesulfonyl]-pyrrolidine-2-carboxylic acid (1-cyano-cyclopropyl)-amide] | 3.48 nM | 14.2 nM | – | –
N#CC1(NC(=O)[C@@H]2C[C@@H](S(=O)(=O)c3ccc(F)cc3Cl)CN2C(=O)C2(c3ncc(Cl)cc3F)CCN2)CC1 (stereo partly drawn) [Example 35, (2S,4R)-4-(2-Chloro-4-fluoro-benzenesulfonyl)-1-[2-(5-chloro-3-fluoro-pyridin-2-yl)-azetidine-2-carbonyl]-pyrrolidine-2-carboxylic acid (1-cyano-cyclopropyl)-amide hydrochloride] | – | – | 1.3 nM | 1440 nM
N#CC1(NC(=O)[C@@H]2C[C@@H](S(=O)(=O)c3ccc(F)cc3Cl)CN2C(=O)C2(c3ncc(Br)cc3F)CCN2)CC1 (stereo partly drawn) [Example 36, (2S,4R)-1-[2-(5-Bromo-3-fluoro-pyridin-2-yl)-azetidine-2-carbonyl]-4-(2-chloro-4-fluoro-benzenesulfonyl)-pyrrolidine-2-carboxylic acid (1-cyano-cyclopropyl)-amide hydrochloride] | 1.42 nM | 621 nM | – | –
C[C@H](Oc1ccc(S(=O)(=O)[C@@H]2C[C@@H](C(=O)NC3(C#N)CC3)N(C(=O)C3(c4ncc(Cl)cc4F)CCN3)C2)c(Cl)c1)C(F)(F)F (stereo partly drawn) [Example 37, (2S,4R)-1-[2-(5-Chloro-3-fluoro-pyridin-2-yl)-azetidine-2-carbonyl]-4-[2-chloro-4-((S)-2,2,2-trifluoro-1-methyl-ethoxy)-benzenesulfonyl]-pyrrolidine-2-carboxylic acid (1-cyano-cyclopropyl)-amide hydrochloride] | – | – | 3.83 nM | 58.5 nM
C[C@H](Oc1ccc(S(=O)(=O)[C@@H]2C[C@@H](C(=O)NC3(C#N)CC3)N(C(=O)C3(c4ncc(Cl)cc4F)CCN3)C2)c(Cl)c1)C(F)(F)F (stereo partly drawn) [Example 38, (2S,4R)-1-[2-(5-Chloro-3-fluoro-pyridin-2-yl)-azetidine-2-carbonyl]-4-[2-chloro-4-((S)-2,2,2-trifluoro-1-methyl-ethoxy)-benzenesulfonyl]-pyrrolidine-2-carboxylic acid (1-cyano-cyclopropyl)-amide hydrochloride] | – | – | 4.16 nM | 317 nM
C[C@H](Oc1ccc(S(=O)(=O)[C@@H]2C[C@@H](C(=O)NC3(C#N)CC3)N(C(=O)C3(c4ncc(Br)cc4F)CCN3)C2)c(Cl)c1)C(F)(F)F (stereo partly drawn) [Example 39, (2S,4R)-1-[2-(5-Bromo-3-fluoro-pyridin-2-yl)-azetidine-2-carbonyl]-4-[2-chloro-4-((S)-2,2,2-trifluoro-1-methyl-ethoxy)-benzenesulfonyl]-pyrrolidine-2-carboxylic acid (1-cyano-cyclopropyl)-amide hydrochloride] | 5.46 nM | 26.9 nM | – | –
Cc1cc(-c2ccc(S(=O)(=O)[C@@H]3C[C@@H](C(=O)NC4(C#N)CC4)N(C(=O)C4(c5ncc(Br)cc5F)CCN4C(=O)OC(C)(C)C)C3)c(Cl)c2)ccn1 (stereo partly drawn) [Example 42, 2-(5-Bromo-3-fluoro-pyridin-2-yl)-2-[(2S,4R)-4-[2-chloro-4-(2-methyl-pyridin-4-yl)-benzenesulfonyl]-2-(1-cyano-cyclopropylcarbamoyl)-pyrrolidine-1-carbonyl]-azetidine-1-carboxylic acid tert-butyl ester] | 4.6 nM | 662 nM | – | –
Cc1cc(-c2ccc(S(=O)(=O)[C@@H]3C[C@@H](C(=O)NC4(C#N)CC4)N(C(=O)C4(c5ncc(Cl)cc5F)CCN4)C3)c(Cl)c2)ccn1 (stereo partly drawn) [Example 43, (2S,4R)-1-[2-(5-Chloro-3-fluoro-pyridin-2-yl)-azetidine-2-carbonyl]-4-[2-chloro-4-(2-methyl-pyridin-4-yl)-benzenesulfonyl]-pyrrolidine-2-carboxylic acid (1-cyano-cyclopropyl)-amide hydrochloride] | 2.33 nM | 86.6 nM | – | –

Reference: patent US8822505B2, “Azetidine derivatives” (Hoffmann-La Roche Inc., priority 2012, dated 2014)
